What was measured:
recapture de la dopamine = molecular target: T1, recapture de la dopamine (Rattus norvegicus, UniProt P23977); test: Inhibition of (3H)DA reuptake in primary cultured neurons (Example 39); assay type: cell-based; details: for Recapture de (³H)DA nH (nombre de Hill) / IC50: cultured neurons from rat embryos; for IC50: 10⁻⁸M (3H)DA, 10 min at 37°C, read-out: Recapture de (³H)DA IC 50
T1 construct: Cultures primaires de neurones; endogenous in cells; host or cells: primary neurons from substantia nigra of 14-day rat embryos
T1 sequence (P23977 whole entry): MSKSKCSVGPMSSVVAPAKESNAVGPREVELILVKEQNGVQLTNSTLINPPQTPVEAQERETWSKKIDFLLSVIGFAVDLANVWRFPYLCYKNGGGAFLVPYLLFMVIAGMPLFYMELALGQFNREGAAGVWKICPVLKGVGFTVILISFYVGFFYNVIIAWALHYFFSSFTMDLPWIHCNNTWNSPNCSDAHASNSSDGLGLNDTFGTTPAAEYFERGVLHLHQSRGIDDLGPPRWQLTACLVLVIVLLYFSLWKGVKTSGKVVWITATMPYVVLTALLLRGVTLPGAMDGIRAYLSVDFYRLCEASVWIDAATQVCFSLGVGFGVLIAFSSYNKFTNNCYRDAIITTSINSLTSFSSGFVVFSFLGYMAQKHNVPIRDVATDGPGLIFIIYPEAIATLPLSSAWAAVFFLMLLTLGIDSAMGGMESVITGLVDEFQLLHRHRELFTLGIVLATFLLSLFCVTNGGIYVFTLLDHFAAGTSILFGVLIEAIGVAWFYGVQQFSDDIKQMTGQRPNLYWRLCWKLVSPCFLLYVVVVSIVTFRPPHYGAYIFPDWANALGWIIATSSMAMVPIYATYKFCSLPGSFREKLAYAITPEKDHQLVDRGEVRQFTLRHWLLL
Excerpt: (§1) Exemple 39 : Etude de l'inhibition de la recapture de la dopamine et de la noradrénaline sur des neurones en culture.
(§2) a) Cultures primaires de neurones.
(§3) La substance noire, structure riche en cellules dopaminergiques, ou le locus coeruleus, contenant les corps cellulaires noradrénergiques, sont disséqués à partir d'embryons de rats de 14 jours, âge auquel les cellules ont terminé leur mitose. Les cellules sont dissociées mécaniquement dans un milieu sans calcium ni magnésium.
(§4) L'ensemencement est réalisé dans des puits prétraités avec de la D-polylysine, à une densité de 150 000 cellules/puits, dans 400µl de milieu de culture composé de 70% de M.E.M.; 25% de Hanks; 5% de Nu-serum décomplémenté; plus 3% de D-glucose (1/20).
(§5) Le milieu de culture est renouvelé au tiers tous les trois jours, jusqu'à 9 jours de développement "in vitro", âge auquel les cellules paraissent matures. A cet âge, la culture ne présente pas encore de cellule gliales.
(§6) b) Test d'inhibition de la recapture de la dopamine et de la noradrénaline.
(§7) On pré-incube les cellules obtenues en a) pendand 15min, à la température ambiante, avec 40µl d'un tampon constitué par le Ringer Phosphate-disodique 5 mM pH=7,6 dont la composition en concentrations finales est la suivante : NaCl 120mM; CaCl₂ 2,6 mM; MgCl₂ 1,3 mM; KCl 5mM; D-glucose 3 mM; Na₂HPO₄5mM.
(§8) On incube ensuite pendant 10min à 37°C avec le même tampon en présence de (³H)Da ou de (³H)NA à une concentration finale 10⁻⁸M et une dilution isotopique de 1/5, et de concentrations croissantes en composé à tester dans un volume final de 400µl.
(§9) On rince ensuite trois fois rapidement avec 750µl du même tampon à 4°C, ce qui correspond à une durée totale de 10 secondes.
(§10) On récupère alors les cellules dans 2 fois 500µl de NaOH 0,5N et on détermine leur radioactivité par comptage avec 4ml de scintillant et 50µl d'acide acétique glacial.
Avant les rinçages, on a prélevé un aliquote de 100µl du milieu d'incubation et on a déterminé la radioactivité libre sur celui-ci par comptage avec 5ml de scintillant.
La recapture spécifique de la (³H)DA ou de (³H)NA est déduite de la différence entre la recapture totale et la diffusion passive pour chacun des composés testés.

[1] = molecular target: recapture de la noradrénaline (Rattus norvegicus, UniProt Q63380); test: Inhibition of (3H)NA reuptake in primary cultured neurons (Example 39); assay type: cell-based; details: for Recapture de (³H)NA nH (nombre de Hill): cultured neurons from rat embryos
Sequence of recapture de la noradrénaline (Q63380 1-617): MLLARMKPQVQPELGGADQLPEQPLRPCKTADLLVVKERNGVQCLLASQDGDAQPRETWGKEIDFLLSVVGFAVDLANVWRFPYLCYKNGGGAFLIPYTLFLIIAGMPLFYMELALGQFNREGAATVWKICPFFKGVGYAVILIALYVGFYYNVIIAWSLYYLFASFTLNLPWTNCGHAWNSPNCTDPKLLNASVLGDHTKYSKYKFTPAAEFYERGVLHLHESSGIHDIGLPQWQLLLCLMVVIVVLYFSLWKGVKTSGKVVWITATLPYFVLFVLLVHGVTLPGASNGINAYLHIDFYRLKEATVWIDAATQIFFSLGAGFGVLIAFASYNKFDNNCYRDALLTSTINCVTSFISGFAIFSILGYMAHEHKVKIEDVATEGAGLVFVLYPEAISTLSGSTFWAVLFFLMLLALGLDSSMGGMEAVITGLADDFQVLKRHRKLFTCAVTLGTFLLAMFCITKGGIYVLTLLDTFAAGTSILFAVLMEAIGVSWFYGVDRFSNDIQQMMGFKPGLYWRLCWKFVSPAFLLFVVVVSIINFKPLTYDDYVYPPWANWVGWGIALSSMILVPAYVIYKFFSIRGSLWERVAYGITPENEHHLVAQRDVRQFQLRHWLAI
Excerpt: as §1, §2, §3, §4, §5, §6, §7, §8, §9, §10
Avant les rinçages, on a prélevé un aliquote de 100µl du milieu d'incubation et on a déterminé la radioactivité libre sur celui-ci par comptage avec 5ml de scintillant. […]

SMILES	Recapture de (³H)DA nH (nombre de Hill) (recapture de la dopamine)	IC50 (recapture de la dopamine) [nM]	Recapture de (³H)NA nH (nombre de Hill) [1]	Recapture de la noradrénaline, result in words ([1]; cultured neurons)	Recapture de la dopamine, result in words (recapture de la dopamine; cultured neurons)
C[C@H]1CC[C@@](c2cc3ccccc3s2)(N2CCCCC2)CC1 [composé n^o 21, (benzo(b)thiophényl-2)-1 c-méthyl-4-r-(pipéridino-1)-1 cyclohexane]	1,07	8	–	–	–
CCCN(CCC)C1(c2cc3ccccc3s2)CCCCC1 [composé no 3, (benzo(b)thiophényl-2)-1 (dipropylamino-1)-1 cyclohexane]	–	–	0,85	–	–
CC1CCCN(C2(c3cc4ccccc4s3)CCCCC2)C1 (stereo not drawn) [composé n^o 2, (benzo(b)thiophényl-2)-1 ((méthyl-3 pipéridino)-1)-1 cyclohexane]	0,95	70	–	–	–
CC1CC(C)CN(C2(c3cc4ccccc4s3)CCCCC2)C1 (stereo not drawn) [composé n^o 6, (benzo(b)thiophényl-2)-1 ((diméthyl-3,5 pipéridino)-1)-1 cyclohexane]	0,95	1.47	1,2	inhibiteur très puissant	inhibiteur très puissant
OC1CCN(C2(c3cc4ccccc4s3)CCCCC2)CC1 [composé 26, (benzo(b)thiophényl-2)-1( (ol-4-pipéridino)-1)-1 cyclohexane]	1,09	17	–	–	–

— patent publication EP0406111A1, “Substituted arylamines and heteroarylamines, process for their preparation and pharmaceutical composition containing them” (SOCIETE DE CONSEILS DE […] D'APPLICATIONS SCIENTIFIQUES …, priority 1989, dated 1991)
